Data as given in US12435059B2, “AMP-activated protein kinase inhibitors and methods of making and using the same” (The Regents of the University of Colorado, priority 2019, dated 2025).
Read-outs that look alike come from different tables or passages of the source.

What was measured:
AMPKα1 [1] = target: T1, AMPKα1 (Homo sapiens (Human), UniProt Q13131); assay: LANCE Eu TR-FRET recombinant kinase assay, AMPK(α1); assay type: biochemical
Description: (§1) Assays were performed at 25° C. in a reaction mixture consisting of 2.5 μL serially diluted inhibitor solution, 2.5 μL kinase, 2.5 μL ATP and 2.5 μL substrate. Reagents were incubated for 1 hr before the reaction was halted through the addition of EDTA (10 mM) after which Eu anti-phospho-CREB (Ser133) antibody (PerkinElmer) was added at a final concentration of 2 nM for 1 hr. […] (n=3)).
Target sequence in this assay (Q13131 whole entry, looked up): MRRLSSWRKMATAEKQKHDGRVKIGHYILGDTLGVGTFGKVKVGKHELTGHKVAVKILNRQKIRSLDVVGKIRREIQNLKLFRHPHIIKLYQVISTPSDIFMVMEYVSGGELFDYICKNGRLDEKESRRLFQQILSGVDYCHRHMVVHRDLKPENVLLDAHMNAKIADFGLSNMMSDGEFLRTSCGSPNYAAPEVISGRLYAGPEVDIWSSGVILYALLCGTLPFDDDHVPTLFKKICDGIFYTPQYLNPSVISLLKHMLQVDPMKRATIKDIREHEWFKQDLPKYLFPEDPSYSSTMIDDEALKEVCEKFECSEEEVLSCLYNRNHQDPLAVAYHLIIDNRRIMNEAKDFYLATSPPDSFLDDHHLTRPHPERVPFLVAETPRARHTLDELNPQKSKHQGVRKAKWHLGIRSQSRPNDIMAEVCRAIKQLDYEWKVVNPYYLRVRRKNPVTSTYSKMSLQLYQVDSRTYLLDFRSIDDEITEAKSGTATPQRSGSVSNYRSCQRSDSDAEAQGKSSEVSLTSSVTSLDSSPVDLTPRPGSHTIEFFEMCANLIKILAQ
Target sequence in this assay (Q9Y478 whole entry partner, looked up): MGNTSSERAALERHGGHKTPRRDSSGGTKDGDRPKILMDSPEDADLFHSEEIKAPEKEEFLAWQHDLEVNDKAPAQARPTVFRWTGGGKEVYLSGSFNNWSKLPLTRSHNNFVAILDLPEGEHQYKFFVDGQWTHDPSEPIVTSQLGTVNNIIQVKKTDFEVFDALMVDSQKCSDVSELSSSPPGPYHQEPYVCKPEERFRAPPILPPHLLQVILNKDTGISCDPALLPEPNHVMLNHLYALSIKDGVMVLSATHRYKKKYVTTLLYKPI
Target sequence in this assay (P54619 whole entry partner, looked up): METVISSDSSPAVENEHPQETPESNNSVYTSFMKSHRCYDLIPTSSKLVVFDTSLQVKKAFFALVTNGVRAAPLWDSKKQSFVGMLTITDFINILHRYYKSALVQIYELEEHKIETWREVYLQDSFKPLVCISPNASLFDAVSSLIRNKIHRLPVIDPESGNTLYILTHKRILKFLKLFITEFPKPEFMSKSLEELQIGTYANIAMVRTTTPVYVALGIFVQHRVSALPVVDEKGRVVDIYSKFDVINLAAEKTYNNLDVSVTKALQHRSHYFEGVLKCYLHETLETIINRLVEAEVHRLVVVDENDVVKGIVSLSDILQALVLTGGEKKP

AMPK(α2) = AMPK(α2) (Homo sapiens (Human), UniProt P54646); assay: LANCE Eu TR-FRET recombinant kinase assay, AMPK(α2); assay type: biochemical
Sequence of AMPK(α2) (P54646 whole entry, looked up): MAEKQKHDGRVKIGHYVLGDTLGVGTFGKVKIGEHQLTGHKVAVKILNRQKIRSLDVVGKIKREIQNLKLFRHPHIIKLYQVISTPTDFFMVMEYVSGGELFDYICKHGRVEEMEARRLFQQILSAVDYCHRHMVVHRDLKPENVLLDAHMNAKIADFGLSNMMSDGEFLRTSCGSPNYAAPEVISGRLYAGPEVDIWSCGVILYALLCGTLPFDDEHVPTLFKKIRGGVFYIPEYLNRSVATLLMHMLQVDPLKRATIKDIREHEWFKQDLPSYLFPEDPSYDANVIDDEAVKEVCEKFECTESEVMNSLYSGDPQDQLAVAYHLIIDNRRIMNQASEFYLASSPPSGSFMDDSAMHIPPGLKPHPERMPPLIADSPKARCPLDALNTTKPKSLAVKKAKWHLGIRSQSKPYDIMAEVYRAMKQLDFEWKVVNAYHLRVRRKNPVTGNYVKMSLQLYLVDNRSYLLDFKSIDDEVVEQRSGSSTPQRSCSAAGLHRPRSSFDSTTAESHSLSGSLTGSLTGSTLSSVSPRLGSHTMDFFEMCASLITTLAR
Sequence of AMPK(α2) (Q9Y478 whole entry partner, looked up): as the sequence (Q9Y478 whole entry partner, looked up) above
Sequence of AMPK(α2) (P54619 whole entry partner, looked up): as the sequence (P54619 whole entry partner, looked up) above
Description: as §1

cellular AMPK = assay: p-ACC(Ser79) ELISA in K562 cell lysates (glucose-free media, 2-DG); assay type: cell-based; details: K562, glucose-free media, 2-DG 12 mM, compound 5 μM single dose; relative to DMSO control
Description: FIGS. 2A and 2B are a series of graphs showing the effects of compounds of the present disclosure on cellular levels of p-ACC(Ser79) in K562 cells. FIG. 2A Quantitative ELISA determination of p-ACC(Ser79) levels in K562 lysates (1.0 mg mL^−1 total protein) following growth in glucose-free media for 24 h, 2-DG (12 mM) treatment for 1 h followed by treatment with inhibitor compounds at 5.0 μM for 2 h. Relative p-ACC levels are reported as a percentage of levels resultant from DMSO control treatment. […] Cells were collected, washed with PBS and lysed on ice in lysis buffer containing 1% Triton X (Cell Signaling). Lysates were someated (1×5 seconds) and centrifuged for 10 minutes at 10,000 rpm and 4° C., and the protein concentration in supernatants was determined by Lowry assay. Lysates were diluted with ELISA PathScan® sample diluent to a final volume of 100 μL and protein concentration of 1.0 mg/ml prior to use. The concentration of p-ACC (Ser79) was determined using an enzyme-linked immunosorbent assay according to recommended protocol (Cell Signaling, ELISA PathScan® phospho-Acetyl-CoA Carboxylase (Ser79)) and expressed as a relative percentage of the DMSO control.
The AMPK substrate ACC is used as a biomarker for the relative activity of AMPK, and the levels of p-ACC(Ser79) were measured by ELISA in the absence or presence of the compounds to determine the compounds' effects on cellular AMPK activity. The presence of total AMPK, p-AMPK, total ACC, and p-ACC was measured by Western blot in a panel of leukemic cell lines grown in glucoe competent or glucose-free media. […] The cell lysates from K562 cells grown in glucose-free media in the presence 2-DG and treated with compounds of the present disclosure were analyzed by the p-ACC(Ser79) ELISA to determine the effect of the compounds on cellular AMPK activity.

K562 cells [2] = assay: MTS cell viability assay in K562 cells; assay type: cell-based; details: Homo sapiens; K562, RPMI-1640; Table 2 head prints 24 h, method and FIG. 3A legend 72 hours
Description: (§2) The cells were incubated with inhibitors for 24 hours, before the plates were equilibrated to room temperature and 100 μL CellTiter-Glo reagent was added. […] Luminescent signal was plotted against the inhibitor log-dose and evaluated by a non-linear regression to determine half-maximal effect concentration (EC50) values, where possible.
An MTS assay was utilized to assess the effect of inhibitors on K562 viability.

K562 cells [3] = assay: CellTiter-Glo cell viability assay in K562 cells (glucose-free media); assay type: cell-based; details: Homo sapiens, read-out: EC50 CellTiter Glo 24 h
Description: as §2
(§3) In order to increase the reliance of the cells on AMPK function, assays were needed that could be performed under glucose-free conditions. Therefore in order to elucidate the mechanism of action of the AMPK inhibitors, a CellTiter-Glo cell viability assay (FIG. 3B), which provide a readout proportional to ATP concentration, and thus, cellular viability, as well as a CellTox green cellular toxicity assay (FIG. 3C and FIG. 3D), which contain a dye that fluoresces upon DNA-binding in cells with impraied membrane integrity due to cytotoxicity were performed in K562 cells grown in glucose-free media. The results are summarized in Table 2 (values are the mean±S.D. (n=3)).

K562 cells [4] = assay: CellTox green cellular toxicity assay in K562 cells (glucose-free media); assay type: cell-based; details: for EC50: Homo sapiens
From the text: Fluorescence was plotted against inhibitor log-dose and evaluated by a non-linear regression to determine half-maximal effect concentration (EC50) values, where possible.
as §3

KDR = KDR (Homo sapiens (Human), UniProt P35968); assay: LanthaScreen Eu TR-FRET KDR competitive binding assay; details: read-out: IC50 (nM) KDR; mean±S.D. (n=3); competitive binding
Sequence of KDR (P35968 20-1356): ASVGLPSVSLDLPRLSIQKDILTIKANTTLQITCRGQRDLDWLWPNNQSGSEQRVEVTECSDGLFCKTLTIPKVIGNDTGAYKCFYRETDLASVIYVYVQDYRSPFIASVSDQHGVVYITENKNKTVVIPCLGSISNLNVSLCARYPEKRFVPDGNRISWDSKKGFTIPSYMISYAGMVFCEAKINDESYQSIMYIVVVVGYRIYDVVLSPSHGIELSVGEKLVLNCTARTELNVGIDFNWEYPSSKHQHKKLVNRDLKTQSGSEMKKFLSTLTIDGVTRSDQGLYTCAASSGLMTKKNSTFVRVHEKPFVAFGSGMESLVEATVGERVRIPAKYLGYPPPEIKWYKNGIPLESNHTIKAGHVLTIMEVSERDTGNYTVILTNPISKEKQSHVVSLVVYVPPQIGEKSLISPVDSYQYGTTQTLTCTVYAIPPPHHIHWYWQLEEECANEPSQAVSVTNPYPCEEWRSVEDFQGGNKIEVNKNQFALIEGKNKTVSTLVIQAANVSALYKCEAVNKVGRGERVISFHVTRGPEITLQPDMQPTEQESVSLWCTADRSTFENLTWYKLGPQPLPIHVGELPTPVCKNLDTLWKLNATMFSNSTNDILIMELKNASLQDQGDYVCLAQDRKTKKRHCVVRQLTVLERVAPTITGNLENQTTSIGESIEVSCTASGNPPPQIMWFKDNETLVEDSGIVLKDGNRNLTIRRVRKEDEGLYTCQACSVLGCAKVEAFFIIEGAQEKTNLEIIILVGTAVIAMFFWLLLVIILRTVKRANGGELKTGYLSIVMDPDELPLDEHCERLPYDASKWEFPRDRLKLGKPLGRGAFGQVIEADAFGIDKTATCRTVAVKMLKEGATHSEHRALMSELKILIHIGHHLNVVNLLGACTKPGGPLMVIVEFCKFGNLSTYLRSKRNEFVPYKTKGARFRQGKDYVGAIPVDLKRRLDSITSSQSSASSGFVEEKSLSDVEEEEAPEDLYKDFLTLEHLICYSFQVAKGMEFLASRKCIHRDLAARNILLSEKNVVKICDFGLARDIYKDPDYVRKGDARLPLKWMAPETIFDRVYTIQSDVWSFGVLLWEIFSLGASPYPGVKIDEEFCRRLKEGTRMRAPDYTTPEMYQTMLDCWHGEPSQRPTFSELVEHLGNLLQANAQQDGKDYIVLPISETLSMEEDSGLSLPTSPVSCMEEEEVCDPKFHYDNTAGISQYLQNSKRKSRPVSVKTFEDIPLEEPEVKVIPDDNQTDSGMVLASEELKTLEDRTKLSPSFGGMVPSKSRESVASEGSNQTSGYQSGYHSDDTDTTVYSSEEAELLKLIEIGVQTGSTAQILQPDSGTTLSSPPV

AMPKα1 [5] = target: T1, AMPKα1; details: purified AMPK protein; read-out: AMPKα1 IC50, 32P radioactivity assay; cited from earlier work
Target sequence in this assay (Q13131 whole entry): as the sequence (Q13131 whole entry, looked up) above
Target sequence in this assay (Q9Y478 whole entry partner): as the sequence (Q9Y478 whole entry partner, looked up) above
Target sequence in this assay (P54619 whole entry partner): as the sequence (P54619 whole entry partner, looked up) above

468 kinases = 468 kinases (Homo sapiens, UniProt Q14004); assay: biochemical; assay type: binding; details: read-out: % Inhibition @ 100 nM, CDC2L5
BTK = BTK (Homo sapiens (Human), UniProt Q06187); assay: Kinome binding analysis at 100 nM, BTK
Sequence of BTK (Q06187 whole entry): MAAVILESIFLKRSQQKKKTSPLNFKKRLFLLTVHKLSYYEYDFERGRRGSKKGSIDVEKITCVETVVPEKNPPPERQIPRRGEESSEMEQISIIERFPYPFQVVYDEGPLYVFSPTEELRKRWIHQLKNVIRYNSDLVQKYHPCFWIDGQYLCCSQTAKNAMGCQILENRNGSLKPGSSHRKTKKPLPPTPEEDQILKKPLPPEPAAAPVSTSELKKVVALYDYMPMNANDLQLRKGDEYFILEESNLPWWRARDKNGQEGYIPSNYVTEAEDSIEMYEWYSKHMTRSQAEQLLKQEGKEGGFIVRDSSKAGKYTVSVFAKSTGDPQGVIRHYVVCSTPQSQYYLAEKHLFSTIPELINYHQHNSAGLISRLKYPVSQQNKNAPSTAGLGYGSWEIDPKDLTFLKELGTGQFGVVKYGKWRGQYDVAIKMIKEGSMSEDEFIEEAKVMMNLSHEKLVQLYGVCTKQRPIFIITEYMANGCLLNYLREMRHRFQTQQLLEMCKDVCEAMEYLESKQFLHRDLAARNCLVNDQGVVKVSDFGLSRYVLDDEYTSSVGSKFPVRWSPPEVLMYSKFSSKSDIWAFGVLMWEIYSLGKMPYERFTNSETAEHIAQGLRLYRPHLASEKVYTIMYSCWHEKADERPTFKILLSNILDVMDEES

[6] = read-out: EC50 CellTox Green 48 h, 48 h

In the case of `CCN(CC)CCNC(=O)c1c(C)[nH]c(/C=C2\C(=O)N(C)c3ccc(F)cc32)c1C` [Compound No. 1, (Z)—N-(2-(Diethylamino)ethyl)-5-((5-fluoro-1-methyl-2-oxoindolin-3-ylidene)methyl)-2,4-dimethyl-1H-pyrrole-3-carboxamide], the “AMPK(α1) % inhibition at 20 μM” value (AMPKα1 [1]; at 20 μM) is reported as 40%, the “AMPK(α2) % inhibition at 10 μM” value (AMPK(α2); at 10 μM) is reported as 17% and the “Relative p-ACC(Ser79) level” value (cellular AMPK) is reported as 97.1 % of control. The EC50 (K562 cells [2]) was 6.79 ± 0.15 µM, the EC50 (K562 cells [3]) was 11.8 ± 0.78 µM and the EC50 (K562 cells [4]; read-out: EC50 CellTox Green 24 h, 24 h) was 12.1 ± 0.91 µM. It also gave an EC50 (K562 cells [4]; [6]) of 6.91 ± 0.06 µM.

With `CCN(CC)CCNC(=O)c1c(C)[nH]c(/C=C2\C(=O)Nc3ccc(CCC#N)cc32)c1C` [Compound No. 15, (Z)-5-((5-(2-cyanoethyl)-2-oxoindolin-3-ylidene)methyl)-N-(2-(diethylamino)ethyl)-2,4-dimethyl-1H-pyrrole-3-carboxamide] the IC50 (AMPKα1 [1]; mean±S.D. (n=3), ATP 8 μM, read-out: IC50 (nM) AMPK(α1)) was 164 ± 10 nM, the IC50 (AMPK(α2); mean±S.D. (n=3), ATP 20 μM) was 32.4 ± 7.8 nM and the “Relative p-ACC(Ser79) level” value (cellular AMPK) was 34.1 % of control. It also gave an EC50 (K562 cells [2]) of 14.8 ± 0.22 µM, an EC50 (K562 cells [3]) of 17.8 ± 0.78 µM and an EC50 (K562 cells [4]; [6]) of 13.6 ± 1.07 µM. The IC50 (KDR) was 1330 ± 140 nM.

In the case of `CNC(=O)c1ccccc1Oc1nc(Nc2cc(OC)c(OC)c(OC)c2)ncc1Br` [SBI-0206965], the IC50 (AMPKα1 [5]) is given as 0.4 µM.

For `CCN(CC)CCNC(=O)c1c(C)[nH]c(/C=C2\C(=O)Nc3ccc(F)cc32)c1C` [Sunitinib, (Z)—N-(2-(Diethylamino)ethyl)-5-((5-fluoro-2-oxoindolin-3-ylidene)methyl)-2,4-dimethyl-1H-pyrrole-3-carboxamide, reference compound], the “CellTox Green 24 h % inhibition at 50 μM” value (K562 cells [4]; 24 h, at 50 μM) was 61% at 50 μM, the inhibition at 0.1 µM (468 kinases) was 49% and the “BTK inhibition, in words” value (BTK; 100 nM) was “strongly inhibited”. For the same compound, the inhibition at 0.1 µM (BTK; read-out: Percentage inhibition at 100 nM, BTK) was 91.3%.
